One experiment deals with PI3K-alpha (Homo sapiens, UniProt P42336). The experiment is described as follows: PI3K-alpha fluorescence polarization assay. The class given is biochemical. Particulars: 20 μM PIP2, 25 μM ATP; read-out: PI3Kα IC50. The protocol:
The reaction buffer was 20 mM HEPES, pH 7.5, 2 mM MgCl2, 0.05% CHAPS; and 0.01% βME (added fresh). The stop/detection buffer was 100 mM HEPES, pH 7.5, 4 mM EDTA, 0.05% CHAPS; ATP 20 mM in water; PIP2 (diC8, Echelon, Salt Lake City Utah cat #P-4508) 1 mM in water (MW=856.5). The GST-GRP was 1.75 mg/mL or 1.4 mg/mL in 10% glycerol. The red detector (TAMRA) was 2.5 μM. Nunc 384-well black polypropylene fluorescent plates were used for PI3K assays.
The assay is run by placing 5 μL of diluted enzyme per well, then 5 μL of diluted compound (or 9.5 μL enzyme then 0.5 μL compound in DMSO) is added and mixed. Then, 10 μL substrate is added to start the reaction. The samples are incubated 30-60 minutes, then the reaction is stopped by adding 20 μL stop/detector mix. PI3K is diluted with reaction buffer (e.g., 5 μL or 7.5 μL PI3K into 620 μL reaction buffer), and 5 μL of diluted enzyme is used per well. A 5 μL portion of reaction buffer or of drug diluted in buffer (e.g., 4 μL/100 so final DMSO is 1% in reaction) is added to each. Pipetting up and down mixes the samples. Alternatively, the enzyme can be diluted to 1215 μL. In this case 9.8 μL is added per well and 0.2 μL compound is added in DMSO.
To prepare 1 mL of substrate solution, 955 μL reaction buffer, 40 μL PIP2, and 2.5 μL ATP are mixed. 10 μL of substrate is added to each well to start the reaction. […] The stop/detector mix is prepared by mixing 4 μL red detector and 1.6 μL or 2.0 μL GST-GRP with 1 mL stop buffer, which results in 10 nM probe and 70 nM GST-GRP. 20 μL of the stop/detector mix is added to each well to stop the reaction. The plates are read after 30-90 minutes keeping the red probe solutions dark. For the zero time point, stop/detector mix is added to the enzyme just before adding substrate. For an extra control, stop/detector mix is added to buffer (no enzyme) and substrate or to just buffer (no substrate). […] The recommended reaction has 0.06 μL per 20 μL (0.015 μg/20 μL) or 0.01125 μg/15 μL or 0.75 μg/mL.
Plates are read on machines with filters for TAMRA. The units are mP with no enzyme controls reading app 190-220 mP units. Fully active enzyme reduces fluorescence polarization down to 70-100 mP after 30 minutes. An active compound raises the mP values halfway to control or to 120-150 mP units.
In general terms: Fluorescence polarisation rises when a labelled molecule tumbles more slowly, as on binding a larger partner.

The subject of the next experiment is LNCap. The experiment is described as follows: In vitro cell growth assay (MTS), LNCap. The format is cell-based. The conditions noted are these: human prostate line, three days after drug treatment. As to the method: (§1) The cell lines used were human prostate lines LNCap and PC3MM2, human breast lines MDA468 and MCF7, human renal line HTB44 (A498), human colon line HCT116, and human ovarian line OVCAR3. Cells were plated in 96-well culture plates. One day following plating, the inhibitors were added to cells. Three days after drug treatment, viable cell densities were determined by metabolic conversion (by viable cells) of the dye MTS, a well-established cell proliferation assay. The assays were performed using an assay kit purchased from Promega Corp. (Madison, Wis.) following the protocol supplied with the kit. The MTS assay results were read in a 96-well plate reader by measuring absorbance at 490 nm. The effect of each treatment was calculated as percent of control growth relative to the vehicle-treated cells grown in the same culture plate.

The test system of the next experiment is MDA468. The experiment is described as follows: In vitro cell growth assay (MTS), MDA468. The class given is cell-based. Particulars: human breast line MDA468, three days after drug treatment, read-out: MDA IC50. The protocol:
as §1

Another experiment concerns the target mTOR (Homo sapiens, UniProt P42345). The experiment is described as follows: mTOR enzyme assay (DELFIA, purified FLAG-TOR, His6-S6K substrate). The class given is biochemical. Also noted: FLAG. Particulars: 100 μM ATP, 2 hours.

As usually defined, the pIC50 is the IC50 on a negative log10 scale, so that one unit is a factor of ten.

pIC50: −log10 of the molar value. Read-outs that look alike come from different tables or passages of the source.

Chain of mTOR (P42345 1360-2549 limits assumed): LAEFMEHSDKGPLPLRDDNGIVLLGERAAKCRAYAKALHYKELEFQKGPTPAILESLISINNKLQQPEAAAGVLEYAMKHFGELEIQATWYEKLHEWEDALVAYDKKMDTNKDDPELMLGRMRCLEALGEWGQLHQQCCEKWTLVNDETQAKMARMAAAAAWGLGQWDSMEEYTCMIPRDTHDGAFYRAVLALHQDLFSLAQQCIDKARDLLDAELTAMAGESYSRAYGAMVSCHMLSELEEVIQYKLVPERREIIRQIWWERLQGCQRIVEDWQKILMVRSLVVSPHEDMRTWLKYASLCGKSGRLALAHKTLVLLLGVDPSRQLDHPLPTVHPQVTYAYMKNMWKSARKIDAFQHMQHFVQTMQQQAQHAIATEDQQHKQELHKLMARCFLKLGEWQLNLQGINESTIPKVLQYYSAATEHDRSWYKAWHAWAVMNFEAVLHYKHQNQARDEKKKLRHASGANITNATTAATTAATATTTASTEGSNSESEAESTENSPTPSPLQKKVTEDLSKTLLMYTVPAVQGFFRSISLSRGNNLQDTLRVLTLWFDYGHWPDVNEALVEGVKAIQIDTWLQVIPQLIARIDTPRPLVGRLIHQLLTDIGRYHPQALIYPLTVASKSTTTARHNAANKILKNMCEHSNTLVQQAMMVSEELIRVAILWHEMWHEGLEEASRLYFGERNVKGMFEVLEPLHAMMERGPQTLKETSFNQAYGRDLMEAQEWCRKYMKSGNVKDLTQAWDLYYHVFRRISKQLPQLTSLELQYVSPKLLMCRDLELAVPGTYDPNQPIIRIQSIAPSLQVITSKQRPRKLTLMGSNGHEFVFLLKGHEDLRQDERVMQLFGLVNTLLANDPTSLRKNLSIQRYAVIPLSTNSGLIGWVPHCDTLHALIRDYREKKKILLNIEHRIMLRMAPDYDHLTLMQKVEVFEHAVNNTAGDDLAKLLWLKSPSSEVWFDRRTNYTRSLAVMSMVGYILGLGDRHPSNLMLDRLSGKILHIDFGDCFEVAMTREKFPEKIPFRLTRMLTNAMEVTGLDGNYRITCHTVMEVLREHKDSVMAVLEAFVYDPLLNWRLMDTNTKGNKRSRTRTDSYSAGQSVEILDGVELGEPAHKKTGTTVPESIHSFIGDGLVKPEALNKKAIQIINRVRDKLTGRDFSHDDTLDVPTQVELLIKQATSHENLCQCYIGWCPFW
Chain of PI3K-alpha (P42336 whole entry, species assumed): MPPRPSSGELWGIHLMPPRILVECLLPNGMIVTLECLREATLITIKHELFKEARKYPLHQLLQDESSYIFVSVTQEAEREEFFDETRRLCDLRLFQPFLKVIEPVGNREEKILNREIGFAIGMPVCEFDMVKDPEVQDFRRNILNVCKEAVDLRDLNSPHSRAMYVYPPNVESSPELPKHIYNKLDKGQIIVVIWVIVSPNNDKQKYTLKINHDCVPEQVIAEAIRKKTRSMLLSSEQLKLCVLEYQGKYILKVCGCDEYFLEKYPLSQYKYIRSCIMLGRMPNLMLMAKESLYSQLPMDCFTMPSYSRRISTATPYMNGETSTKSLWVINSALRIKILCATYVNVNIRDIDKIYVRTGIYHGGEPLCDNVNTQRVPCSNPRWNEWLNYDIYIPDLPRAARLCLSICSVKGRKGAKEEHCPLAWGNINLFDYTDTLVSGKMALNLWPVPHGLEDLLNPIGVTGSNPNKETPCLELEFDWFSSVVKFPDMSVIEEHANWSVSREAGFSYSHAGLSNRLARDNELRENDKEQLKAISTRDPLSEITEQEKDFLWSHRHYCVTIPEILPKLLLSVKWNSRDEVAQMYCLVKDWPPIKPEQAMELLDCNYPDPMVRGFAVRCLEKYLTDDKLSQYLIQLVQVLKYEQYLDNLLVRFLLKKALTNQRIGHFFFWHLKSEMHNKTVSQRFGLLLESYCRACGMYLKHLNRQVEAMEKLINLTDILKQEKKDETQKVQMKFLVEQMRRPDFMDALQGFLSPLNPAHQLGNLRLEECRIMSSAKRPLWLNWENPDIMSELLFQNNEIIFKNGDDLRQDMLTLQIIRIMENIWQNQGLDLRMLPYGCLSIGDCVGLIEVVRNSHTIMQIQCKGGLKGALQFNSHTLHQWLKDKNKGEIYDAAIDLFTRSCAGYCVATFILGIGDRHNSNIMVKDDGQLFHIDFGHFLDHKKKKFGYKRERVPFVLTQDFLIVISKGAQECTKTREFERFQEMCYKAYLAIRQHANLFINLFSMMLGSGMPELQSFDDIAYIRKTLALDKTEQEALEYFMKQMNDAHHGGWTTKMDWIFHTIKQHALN
Chain of PI3K-alpha (P27986 whole entry partner, species assumed): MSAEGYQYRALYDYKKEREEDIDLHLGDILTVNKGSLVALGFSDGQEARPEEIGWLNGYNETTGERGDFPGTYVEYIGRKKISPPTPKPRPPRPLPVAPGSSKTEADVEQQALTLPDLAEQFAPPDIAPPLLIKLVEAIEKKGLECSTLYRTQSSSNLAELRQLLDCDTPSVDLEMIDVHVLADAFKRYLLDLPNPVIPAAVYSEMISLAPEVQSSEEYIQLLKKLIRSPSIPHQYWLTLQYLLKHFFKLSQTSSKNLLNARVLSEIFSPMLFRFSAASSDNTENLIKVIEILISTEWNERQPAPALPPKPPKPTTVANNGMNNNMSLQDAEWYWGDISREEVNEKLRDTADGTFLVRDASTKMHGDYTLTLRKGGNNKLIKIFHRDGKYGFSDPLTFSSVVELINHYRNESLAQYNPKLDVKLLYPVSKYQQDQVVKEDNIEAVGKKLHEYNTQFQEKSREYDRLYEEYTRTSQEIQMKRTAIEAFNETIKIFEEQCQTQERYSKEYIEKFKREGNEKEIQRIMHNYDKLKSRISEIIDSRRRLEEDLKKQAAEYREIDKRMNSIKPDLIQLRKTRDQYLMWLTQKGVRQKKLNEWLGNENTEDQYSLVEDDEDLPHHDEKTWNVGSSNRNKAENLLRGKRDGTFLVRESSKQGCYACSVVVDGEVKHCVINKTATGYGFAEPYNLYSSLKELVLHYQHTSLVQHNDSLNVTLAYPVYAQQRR

For the compound `CC(C)Nc1cc(N2CC3CCC(C2)O3)nc(-c2ccc(NC(=O)Nc3ccncc3)cc2)n1` [1-(4-{4-[(1-methylethyl)amino]-6-(8-oxa-3-azabicyclo[3.2.1]oct-3-yl)pyrimidin-2-yl}phenyl)-3-pyridin-4-ylurea], the pIC50 at PI3K-alpha is 6.85; in the experiment on LNCap (LNCaP, 72 h) it was 7.29; in the experiment with MDA468 (72 h), 6.51; against mTOR it was 9.11.

With `CN(C)CCOc1ccc(NC(=O)Nc2ccc(-c3nc(N4C5CCC4COC5)cc(N4C5CCC4COC5)n3)cc2)cc1` [1-{4-[2-(dimethylamino)ethoxy]phenyl}-3-[4-(4,6-di-3-oxa-8-azabicyclo[3.2.1]oct-8-ylpyrimidin-2-yl)phenyl]urea], the pIC50 on PI3K-alpha is 5.81; in the experiment on LNCap (LNCaP, 72 h), 8.40; in the experiment with MDA468 (72 h), 8.05; against mTOR, 8.60.

In the case of `CCNC(=O)Nc1ccc(-c2nc(-c3ccccc3)cc(N3CC4CCC(C3)O4)n2)cc1` [1-ethyl-3-{4-[4-(8-oxa-3-azabicyclo[3.2.1]oct-3-yl)-6-phenylpyrimidin-2-yl]phenyl}urea], the pIC50 on PI3K-alpha is 5.69; in the experiment on LNCap (LNCaP, 72 h), 6.35; with MDA468 (72 h) it was 5.72; against mTOR it was 7.96.

As to `CS(=O)(=O)Cc1cc(N2CC3CCC(C2)O3)nc(-c2ccc(NC(=O)Nc3ccncc3)cc2)n1` [1-(4-{4-[(methylsulfonyl)methyl]-6-(8-oxa-3-azabicyclo[3.2.1]oct-3-yl)pyrimidin-2-yl}phenyl)-3-pyridin-4-ylurea], the pIC50 was 6.63 on PI3K-alpha; 6.82 in the experiment with LNCap (LNCaP, 72 h); 7.12 with MDA468 (72 h); 9.08 on mTOR.

As to `CCN(C(=O)Nc1ccc(N2CCN(C)CC2)cc1)c1ccc(-c2nc(N3CC4CCC(C3)O4)cc(N3CC4CCC(C3)O4)n2)cc1` [1-[4-(4,6-di-8-oxa-3-azabicyclo[3.2.1]oct-3-ylpyrimidin-2-yl)phenyl]-1-ethyl-3-[4-(4-methylpiperazin-1-yl)phenyl]urea], the pIC50 at PI3K-alpha was 5.61; in the experiment with LNCap (LNCaP, 72 h), 5.55; with MDA468 (72 h), 5.15; at mTOR it was 6.71.

Turning to `NC(=O)c1ccc(NC(=O)Nc2ccc(-c3cc(N4CC5CCC(C4)O5)nc(-c4ccc(NC(=O)Nc5ccc(C(N)=O)cc5)cc4)n3)cc2)cc1` [4,4′-{[6-(8-oxa-3-azabicyclo[3.2.1]oct-3-yl)pyrimidine-2,4-diyl]bis(4,1-phenylenecarbamoylimino)}dibenzamide], the pIC50 at PI3K-alpha is 7.35; in the experiment on LNCap it was 7.39; with MDA468 it was 7.35; at mTOR, 9.24.

With `CN(Cc1ccc(NC(=O)Nc2ccc(-c3nc(CS(C)(=O)=O)cc(N4CC5CCC(C4)O5)n3)cc2)cc1)C(=O)OC(C)(C)C` [tert-butyl methyl(4-{[(4-{4-[(methylsulfonyl)methyl]-6-(8-oxa-3-azabicyclo[3.2.1]oct-3-yl)pyrimidin-2-yl}phenyl)carbamoyl]amino}benzyl)carbamate], the pIC50 at PI3K-alpha was 5.71; with LNCap (LNCaP, 72 h) it was 6.68; in the experiment with MDA468 (72 h), 6.33; against mTOR, 7.52.

For the compound `CCN(C(=O)Nc1ccncc1)c1ccc(-c2nc(N3CC4CCC(C3)O4)cc(N3CC4CCC(C3)O4)n2)cc1` [1-[4-(4,6-di-8-oxa-3-azabicyclo[3.2.1]oct-3-ylpyrimidin-2-yl)phenyl]-1-ethyl-3-pyridin-4-ylurea], the pIC50 at PI3K-alpha was 5.65; with LNCap (LNCaP, 72 h) it was 5.24; with MDA468 (72 h) it was 4.70; at mTOR, 6.70.

For `O=C(Nc1ccc(-c2nccc(N3CC4CCC(C3)O4)n2)cc1)OCCO` [2-hydroxyethyl {4-[4-(8-oxa-3-azabicyclo[3.2.1]oct-3-yl)pyrimidin-2-yl]phenyl}carbamate], the pIC50 on PI3K-alpha was 5.29; in the experiment on LNCap (LNCaP, 72 h) it was 5.40; with MDA468 (72 h) it was 4.62; against mTOR, 6.78.

In the case of `CN1CCN(Cc2ccc(NC(=O)Nc3ccc(-c4nc(CS(C)(=O)=O)cc(N5CC6CCC(C5)O6)n4)cc3)cc2)CC1` [1-{4-[(4-methylpiperazin-1-yl)methyl]phenyl}-3-(4-{4-[(methylsulfonyl)methyl]-6-(8-oxa-3-azabicyclo[3.2.1]oct-3-yl)pyrimidin-2-yl}phenyl)urea], the pIC50 is 6.28 on PI3K-alpha; 7.10 in the experiment on LNCap (LNCaP, 72 h); 6.85 with MDA468 (72 h); 8.39 on mTOR.

For `CNC(=O)Nc1ccc(-c2cc(N3CC4CCC(C3)O4)nc(N3CC4CCC(C3)O4)n2)cc1` [1-[4-(2,6-di-8-oxa-3-azabicyclo[3.2.1]oct-3-ylpyrimidin-4-yl)phenyl]-3-methylurea], the pIC50 on PI3K-alpha was 5.60; in the experiment on LNCap (LNCaP, 72 h), 5.80; in the experiment on MDA468 (72 h), 5.38; on mTOR, 7.69.

As to `CCNC(=O)Nc1ccc(-c2nc(CS(C)(=O)=O)cc(N3CC4CCC(C3)O4)n2)cc1` [1-ethyl-3-(4-{4-[(methylsulfonyl)methyl]-6-(8-oxa-3-azabicyclo[3.2.1]oct-3-yl)pyrimidin-2-yl}phenyl)urea], the pIC50 on PI3K-alpha was 5.74; with LNCap (LNCaP, 72 h), 6.00; in the experiment with MDA468 (72 h) it was 5.72; on mTOR it was 8.24.

As for `CC(C)Nc1cc(N2C3CCC2COC3)nc(-c2ccc(NC(=O)Nc3ccc(OCCN(C)C)cc3)cc2)n1` [1-{4-[2-(dimethylamino)ethoxy]phenyl}-3-{4-[4-(isopropylamino)-6-(3-oxa-8-azabicyclo[3.2.1]oct-8-yl)pyrimidin-2-yl]phenyl}urea], the pIC50 at PI3K-alpha was 5.62; with LNCap (LNCaP, 72 h), 7.30; with MDA468 (72 h), 6.15; at mTOR, 8.44.

On to `CN1CCN(c2ccc(NC(=O)Nc3ccc(-c4nc(CS(C)(=O)=O)cc(N5CC6CCC(C5)O6)n4)cc3)cc2)CC1` [1-[4-(4-methylpiperazin-1-yl)phenyl]-3-(4-{4-[(methylsulfonyl)methyl]-6-(8-oxa-3-azabicyclo[3.2.1]oct-3-yl)pyrimidin-2-yl}phenyl)urea], for which the pIC50 was 6.46 at PI3K-alpha; 7.82 in the experiment with LNCap (LNCaP, 72 h); 7.52 in the experiment on MDA468 (72 h); 8.53 on mTOR.

Regarding `CC(C)Oc1cc(N2CC3CCC(C2)O3)nc(-c2ccc(NC(=O)Nc3ccc(N4CCN(C)CC4)cc3)cc2)n1` [1-{4-[4-(1-methylethoxy)-6-(8-oxa-3-azabicyclo[3.2.1]oct-3-yl)pyrimidin-2-yl]phenyl}-3-[4-(4-methylpiperazin-1-yl)phenyl]urea], the pIC50 on PI3K-alpha is 6.29; in the experiment with LNCap (LNCaP, 72 h) it was 7.52; with MDA468 (72 h), 6.98; against mTOR it was 8.48.

For `O=C(Nc1ccncc1)Nc1ccc(-c2nc(N3C4CCC3COC4)cc(N3C4CCC3COC4)n2)cc1` [1-[4-(4,6-di-3-oxa-8-azabicyclo[3.2.1]oct-8-ylpyrimidin-2-yl)phenyl]-3-pyridin-4-ylurea], the pIC50 on PI3K-alpha was 6.02; with LNCap (LNCaP, 72 h), 8.52; in the experiment on MDA468 (72 h), 7.72; against mTOR it was 9.18.

With `CC(C)Oc1cc(N2CC3CCC(C2)O3)nc(-c2ccc(NC(=O)NC3CC3)cc2)n1` [1-cyclopropyl-3-{4-[4-(1-methylethoxy)-6-(8-oxa-3-azabicyclo[3.2.1]oct-3-yl)pyrimidin-2-yl]phenyl}urea], the pIC50 is 5.14 at PI3K-alpha; 6.54 with LNCap (LNCaP, 72 h); 5.74 in the experiment with MDA468 (72 h); 8.35 on mTOR.
